Measurements taken from ChEMBL document CHEMBL5325501, “Discovery of BWA-522, a First-in-Class and Orally Bioavailable PROTAC Degrader of the Androgen Receptor Targeting N-Terminal Domain for the Treatment of Prostate Cancer” (J Med Chem, 2023).
Each block holds one compound with its values, some of them ahead of it. The source made the active and inactive calls. No cut-off for these calls is given here.

Key:
LNCaP [1] = assay: Antiproliferative activity against human LNCaP cells assessed as reduction in cell viability incubated for 6 days by CCK-8 assay; assay type: functional, cell-based; details: 144 h
VCaP = assay: Antiproliferative activity against human VCaP cells assessed as reduction in cell viability incubated for 6 days by CCK-8 assay; assay type: functional, cell-based; details: 144 h
CWR22R [2] = assay: Antiproliferative activity against enzalutamide-resistant human 22Rv1 cells assessed as reduction in cell viability incubated for 6 days by CCK-8 assay; assay type: functional, cell-based; details: 22Rv1, 144 h
LNCaP [3] = assay: Inhibition of colony formation in human LNCaP cells at 1 to 10 uM incubated for 2 weeks by crystal violet staining based analysis; assay type: functional, cell-based; details: dose 1-10 µM
CWR22R [4] = assay: Inhibition of colony formation in human 22Rv1 cells at 1 to 10 uM incubated for 2 weeks by crystal violet staining based analysis; assay type: functional, cell-based; details: dose 1-10 µM
LNCaP [5] = assay: Antitumor activity against human LNCaP cells xenografted in NOD SCID mouse assessed as tumor growth inhibition at 180 mg/kg, po administered daily for 4 weeks relative to control; assay type: functional; details: 672 h, read-out: TGI
CWR22R [6] = assay: Cytotoxicity against human 22Rv1 cells assessed as cell death at 5 uM; assay type: toxicity, cell-based
PC-3 [7] = assay: Cytotoxicity against human PC-3 cells assessed as cell death at 5 uM; assay type: toxicity, cell-based; details: pc-3, 5 µM
[8] = target: T1, Protein cereblon/Androgen receptor (Homo sapiens) (UniProt P10275+Q96SW2); assay: PROTAC activity at CRBN/full-length AR in human 22Rv1 cells assessed as induction of AR degradation at 0.03 to 1 uM incubated for 24 hrs by Western blot analysis; assay type: cell-based; details: dose 0.03-1 µM
T1 sequence (P10275 whole entry, looked up): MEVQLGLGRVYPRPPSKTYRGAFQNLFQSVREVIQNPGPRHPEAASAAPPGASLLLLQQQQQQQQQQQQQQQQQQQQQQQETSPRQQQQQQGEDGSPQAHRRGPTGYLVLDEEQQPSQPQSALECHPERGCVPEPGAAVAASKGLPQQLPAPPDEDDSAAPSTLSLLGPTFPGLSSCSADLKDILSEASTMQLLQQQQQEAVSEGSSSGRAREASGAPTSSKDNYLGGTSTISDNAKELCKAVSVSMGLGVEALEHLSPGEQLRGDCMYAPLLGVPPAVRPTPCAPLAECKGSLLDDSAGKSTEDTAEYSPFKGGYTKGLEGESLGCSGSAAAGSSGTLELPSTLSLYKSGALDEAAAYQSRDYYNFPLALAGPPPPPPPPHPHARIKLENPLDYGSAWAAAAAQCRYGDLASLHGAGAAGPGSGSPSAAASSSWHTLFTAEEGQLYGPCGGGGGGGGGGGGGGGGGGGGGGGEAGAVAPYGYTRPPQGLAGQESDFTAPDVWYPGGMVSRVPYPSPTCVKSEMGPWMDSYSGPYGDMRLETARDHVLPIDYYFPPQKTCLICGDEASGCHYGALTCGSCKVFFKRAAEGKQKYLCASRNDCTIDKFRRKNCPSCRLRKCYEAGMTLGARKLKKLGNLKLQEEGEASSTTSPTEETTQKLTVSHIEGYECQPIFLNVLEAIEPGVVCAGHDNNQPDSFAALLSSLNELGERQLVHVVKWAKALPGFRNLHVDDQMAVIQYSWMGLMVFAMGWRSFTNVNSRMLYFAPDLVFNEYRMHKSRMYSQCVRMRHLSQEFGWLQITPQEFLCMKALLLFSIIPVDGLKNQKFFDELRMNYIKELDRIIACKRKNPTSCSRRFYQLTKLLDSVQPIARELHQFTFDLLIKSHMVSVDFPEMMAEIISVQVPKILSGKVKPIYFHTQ
T1 sequence (Q96SW2 whole entry, looked up): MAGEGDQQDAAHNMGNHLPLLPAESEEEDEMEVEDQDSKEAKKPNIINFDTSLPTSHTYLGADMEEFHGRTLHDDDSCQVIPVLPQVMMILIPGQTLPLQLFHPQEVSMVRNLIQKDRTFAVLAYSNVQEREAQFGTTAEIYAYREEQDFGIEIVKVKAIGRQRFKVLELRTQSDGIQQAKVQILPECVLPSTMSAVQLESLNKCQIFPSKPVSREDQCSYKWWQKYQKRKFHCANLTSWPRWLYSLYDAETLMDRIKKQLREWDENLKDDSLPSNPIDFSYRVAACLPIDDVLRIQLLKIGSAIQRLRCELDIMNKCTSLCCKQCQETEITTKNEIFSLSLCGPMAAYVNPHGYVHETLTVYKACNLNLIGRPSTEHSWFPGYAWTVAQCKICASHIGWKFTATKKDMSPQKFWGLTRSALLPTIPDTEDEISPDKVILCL

[9] = target: T1, Protein cereblon/Androgen receptor (Homo sapiens); assay: PROTAC activity at CRBN/full-length AR in human […] cells assessed as induction of AR degradation at 0.03 to 1 uM incubated for 24 hrs by Western blot analysis; assay type: cell-based; details: dose 0.03-1 µM
[10] = system: Protein cereblon/Androgen receptor (Homo sapiens), P10275+Q96SW2 [UNDEFINED MUTATION]; assay: PROTAC activity at CRBN/AR-V7 in human 22Rv1 cells assessed as induction of AR degradation at 0.03 to 1 uM incubated for 24 hrs by Western blot analysis; assay type: cell-based; details: dose 0.03-1 µM
Sequence of Protein cereblon/Androgen receptor (Homo sapiens), P10275+Q96SW2 [UNDEFINED MUTATION] (P10275 whole entry, looked up, stated change not applied): as the sequence (P10275 whole entry, looked up) above
Sequence of Protein cereblon/Androgen receptor (Homo sapiens), P10275+Q96SW2 [UNDEFINED MUTATION] (Q96SW2 whole entry, looked up, stated change not applied): as the sequence (Q96SW2 whole entry, looked up) above

[11] = system: Protein cereblon/Androgen receptor (Homo sapiens), P10275+Q96SW2 [UNDEFINED MUTATION]; assay: PROTAC activity at CRBN/AR-V7 in human […] cells assessed as induction of AR degradation at 0.03 to 1 uM incubated for 24 hrs by Western blot analysis; assay type: cell-based; details: dose 0.03-1 µM
CWR22R [12] = assay: Cytotoxicity against human 22Rv1 cells assessed as cell death at high concentration incubated for 24 hrs; assay type: toxicity, cell-based
PC-3 [13] = assay: Cytotoxicity against human PC-3 cells assessed as cell death at high concentration incubated for 24 hrs; assay type: toxicity, cell-based; details: pc-3, 24 h
[14] = Cytotoxicity against human PC-3 cells assessed as inhibition of cell growth incubated for 6 days; assay type: toxicity, cell-based
RWPE-1 = assay: Cytotoxicity against human RWPE-1 cells assessed as reduction in cell viability incubated for 6 days by CCK8 assay; assay type: toxicity, cell-based; details: rwpe-1, 144 h, time 6 day
LNCaP [15] = assay: Antitumor activity against human LNCaP cells xenografted in NOD SCID mouse assessed as tumor growth inhibition at 10 mg/kg, po administered daily for 4 weeks relative to control; details: 672 h, read-out: TGI
[16] = Tmax in ICR mouse at 10 mg/kg, po measured by LC-MS/MS analysis; assay type: ADME, organism-based; details: in vivo
[17] = Cmax in ICR mouse at 10 mg/kg, po measured by LC-MS/MS analysis; assay type: ADME, organism-based; set-up: dose 10 mg/kg, route po; details: in vivo
[18] = Half-life in ICR mouse at 2 mg/kg, iv measured by LC-MS/MS analysis; assay type: ADME, organism-based; details: in vivo
[19] = Tmax in ICR mouse at 2 mg/kg, iv measured by LC-MS/MS analysis; assay type: ADME, organism-based; details: in vivo
[20] = Cmax in ICR mouse at 2 mg/kg, iv measured by LC-MS/MS analysis; assay type: ADME, organism-based; set-up: dose 2 mg/kg, route iv; details: in vivo
[21] = AUC(0 to t) in ICR mouse at 2 mg/kg, iv measured by LC-MS/MS analysis; assay type: ADME, organism-based; set-up: dose 2 mg/kg, route iv; details: in vivo
[22] = Clearance in ICR mouse at 2 mg/kg, iv measured by LC-MS/MS analysis; assay type: ADME, organism-based; details: in vivo
[23] = Half-life in ICR mouse at 10 mg/kg, po measured by LC-MS/MS analysis; assay type: ADME, organism-based; details: in vivo
[24] = AUC(0 to t) in ICR mouse at 10 mg/kg, po measured by LC-MS/MS analysis; assay type: ADME, organism-based; set-up: dose 10 mg/kg, route po; details: in vivo
[25] = Oral bioavailability in ICR mouse at 10 mg/kg measured by LC-MS/MS analysis; assay type: ADME, organism-based; details: in vivo
[26] = target: T2, von Hippel-Lindau disease tumor suppressor/Androgen receptor (Homo sapiens, UniProt P10275+P40337); assay: PROTAC activity at VHL/AR-V7 in human 22Rv1 cells assessed as induction of AR degradation by Immunoblot analysis; assay type: cell-based
Target sequence in this assay (P10275 whole entry, looked up, change not shown): as the sequence (P10275 whole entry, looked up) above
Target sequence in this assay (P40337 whole entry, looked up, change not shown): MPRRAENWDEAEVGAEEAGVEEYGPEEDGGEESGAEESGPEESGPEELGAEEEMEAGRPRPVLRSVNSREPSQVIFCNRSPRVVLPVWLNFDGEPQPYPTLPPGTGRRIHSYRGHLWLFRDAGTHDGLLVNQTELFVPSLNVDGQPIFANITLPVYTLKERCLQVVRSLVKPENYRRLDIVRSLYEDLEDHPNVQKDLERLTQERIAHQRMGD

[27] = target: T2, von Hippel-Lindau disease tumor suppressor/Androgen receptor; assay: PROTAC activity at VHL/full-length AR in human LNCaP cells assessed as induction of AR degradation at 1 uM by Western blot analysis relative to control; assay type: cell-based
Target sequence in this assay (P10275 whole entry, looked up): as the sequence (P10275 whole entry, looked up) above
Target sequence in this assay (P40337 whole entry, looked up): as the sequence (P40337 whole entry, looked up, change not shown) above

[28] = target: T2, von Hippel-Lindau disease tumor suppressor/Androgen receptor; assay: PROTAC activity at VHL/full-length AR in human LNCaP cells assessed as induction of AR degradation at 5 uM by Western blot analysis relative to control; assay type: cell-based
Target sequence in this assay (P10275 whole entry, looked up): as the sequence (P10275 whole entry, looked up) above
Target sequence in this assay (P40337 whole entry, looked up): as the sequence (P40337 whole entry, looked up, change not shown) above

[29] = target: T2, von Hippel-Lindau disease tumor suppressor/Androgen receptor; assay: PROTAC activity at VHL/full-length AR in human VCaP cells assessed as induction of AR degradation at 1 uM by Western blot analysis relative to control; assay type: cell-based
Target sequence in this assay (P10275 whole entry, looked up): as the sequence (P10275 whole entry, looked up) above
Target sequence in this assay (P40337 whole entry, looked up): as the sequence (P40337 whole entry, looked up, change not shown) above

[30] = target: T2, von Hippel-Lindau disease tumor suppressor/Androgen receptor; assay: PROTAC activity at VHL/full-length AR in human VCaP cells assessed as induction of AR degradation at 5 uM by Western blot analysis relative to control; assay type: cell-based
Target sequence in this assay (P10275 whole entry, looked up): as the sequence (P10275 whole entry, looked up) above
Target sequence in this assay (P40337 whole entry, looked up): as the sequence (P40337 whole entry, looked up, change not shown) above

[31] = system: von Hippel-Lindau disease tumor suppressor/Androgen receptor (Homo sapiens), P10275+P40337 [UNDEFINED MUTATION]; assay: PROTAC activity at VHL/AR-V7 in human VCaP cells assessed as induction of AR degradation at 1 uM by Western blot analysis relative to control; assay type: cell-based
Sequence of von Hippel-Lindau disease tumor suppressor/Androgen receptor (Homo sapiens), P10275+P40337 [UNDEFINED MUTATION] (P10275 whole entry, looked up, change not shown): as the sequence (P10275 whole entry, looked up) above
Sequence of von Hippel-Lindau disease tumor suppressor/Androgen receptor (Homo sapiens), P10275+P40337 [UNDEFINED MUTATION] (P40337 whole entry, looked up, change not shown): as the sequence (P40337 whole entry, looked up, change not shown) above

[32] = system: von Hippel-Lindau disease tumor suppressor/Androgen receptor (Homo sapiens), P10275+P40337 [UNDEFINED MUTATION]; assay: PROTAC activity at VHL/AR-V7 in human VCaP cells assessed as induction of AR degradation at 5 uM by Western blot analysis relative to control; assay type: cell-based

Compound: CC(C)(c1ccc(OC[C@H](O)CO)cc1)c1ccc(OC[C@H](O)CCl)cc1
IC50 (LNCaP [1]): > 30000 nM | IC50 (VCaP): > 30000 nM | IC50 (CWR22R [2]): > 30000 nM | inhibition (LNCaP [3]): inactive | inhibition (CWR22R [4]): inactive | inhibition in vivo at 180 mg/kg (LNCaP [5]): 43%

Compound: CC(C)(c1ccc(OCC2CCN(CC3CCN(CC4CCN(c5cccc6c5C(=O)N(C5CCC(=O)NC5=O)C6=O)CC4)CC3)CC2)cc1)c1ccc(OC[C@H](O)CCl)cc1 (stereo not given in full)
Activity (CWR22R [6]): Toxic | Activity (PC-3 [7]): Toxic

Compound: CC(C)(c1ccc(OCC2CCN(CC3CCN(CC4CCN(c5ccc6c(c5)C(=O)N(C5CCC(=O)NC5=O)C6=O)CC4)CC3)CC2)cc1)c1ccc(OC[C@H](O)CCl)cc1 (stereo not given in full)
Activity [8]: inactive | Activity [9]: inactive | Activity [10]: inactive | Activity [11]: inactive | Activity (CWR22R [12]): Toxic | Activity (PC-3 [13]): Toxic | IC50 at 6 days [14]: 1370 nM

Compound: CNC(=O)c1ccc(N2C(=S)N(c3ccc(C#N)c(C(F)(F)F)c3)C(=O)C2(C)C)cc1F [ENZALUTAMIDE]
Activity (RWPE-1): Non-Toxic | inhibition in vivo at 10 mg/kg (LNCaP [15]): 72%

Compound: CC(C)(c1ccc(OCC2CCN(CC3CCN(C4CCN(c5cccc6c5C(=O)N(C5CCC(=O)NC5=O)C6=O)CC4)CC3)CC2)cc1)c1ccc(OC[C@H](O)CCl)cc1 (stereo not given in full)
Activity (CWR22R [6]): Toxic | Activity (PC-3 [7]): Toxic

Compound: CC(C)(c1ccc(OCC2CCN(CC3CCN(C4CCN(c5ccc6c(c5)C(=O)N(C5CCC(=O)NC5=O)C6=O)CC4)CC3)CC2)cc1)c1ccc(OC[C@H](O)CCl)cc1 (stereo not given in full)
Activity [8]: inactive | Activity [9]: inactive | Activity [10]: inactive | Activity [11]: inactive | Activity (CWR22R [12]): Toxic | Activity (PC-3 [13]): Toxic | IC50 at 6 days [14]: 1030 nM

Compound: CC(C)(c1ccc(OCC2CCN(CC3CN(C4CCN(c5cccc6c5C(=O)N(C5CCC(=O)NC5=O)C6=O)CC4)C3)CC2)cc1)c1ccc(OC[C@H](O)CCl)cc1 (stereo not given in full)
Tmax [16]: 2 h | Cmax [17]: 47 ng/mL | half-life [18]: 13.6 h | Tmax [19]: 6 min | Cmax [20]: 662 ng/mL | AUC(0-t) [21]: 645 ng·h/mL | clearance [22]: 38.6 mL/min/kg | half-life [23]: 20.5 h | AUC(0-t) [24]: 332 ng·h/mL | bioavailability [25]: 12.3%

The next lines start with the values.

EC50 [26]: 370 nM
Compound: Cc1ncsc1-c1ccc([C@H](C)NC(=O)[C@@H]2C[C@@H](O)CN2C(=O)[C@@H](NC(=O)CCCCNC(=O)COc2c(-c3csc(N4CCOCC4)n3)ccc(F)c2F)C(C)(C)C)cc1

Tmax [16]: 0.2 h | Cmax [17]: 130 ng/mL | half-life [18]: 0.5 h | Tmax [19]: 6 min | Cmax [20]: 518 ng/mL | AUC(0-t) [21]: 303 ng·h/mL | clearance [22]: 111 mL/min/kg | half-life [23]: 1.8 h | AUC(0-t) [24]: 113 ng·h/mL | bioavailability [25]: 7.8%
Compound: CC(C)(c1ccc(OCC2CCN(C(=O)CCCNc3ccc4c(c3)C(=O)N(C3CCC(=O)NC3=O)C4=O)CC2)cc1)c1ccc(OC[C@H](O)CCl)cc1 (stereo not given in full)

Activity [27]: 22% | Activity [28]: 36.6% | Activity [29]: 43.2% | Activity [30]: 53.5% | Activity [31]: 56.4% | Activity [32]: 59.5%
Compound: Cc1ncsc1-c1ccc(CNC(=O)[C@@H]2C[C@@H](O)CN2C(=O)[C@@H](NC(=O)Cn2cc(CCCCOc3ccc(C(C)(C)c4ccc(OC[C@H](O)CCl)cc4)cc3)nn2)C(C)(C)C)cc1

Activity [27]: 27.5% | Activity [28]: 31.9% | Activity [29]: 48.9% | Activity [30]: 39.6% | Activity [31]: 38.1% | Activity [32]: 48.2%
Compound: Cc1ncsc1-c1ccc(CNC(=O)[C@@H]2C[C@@H](O)CN2C(=O)[C@@H](NC(=O)Cn2cc(CCCCCOc3ccc(C(C)(C)c4ccc(OC[C@H](O)CCl)cc4)cc3)nn2)C(C)(C)C)cc1

Activity [27]: 17.6% | Activity [28]: 27.9% | Activity [29]: 18.4% | Activity [30]: 31% | Activity [31]: 45.9% | Activity [32]: 63.3%
Compound: Cc1ncsc1-c1ccc(CNC(=O)[C@@H]2C[C@@H](O)CN2C(=O)[C@@H](NC(=O)Cn2cc(CCCOc3ccc(C(C)(C)c4ccc(OC[C@H](O)CCl)cc4)cc3)nn2)C(C)(C)C)cc1
